Source: US9161562B2, “Natural sweetener” (Horizon Science Pty Ltd, priority 2004, dated 2015)
Like-named read-outs stand apart in the source and are kept apart here.

How the values were obtained:
[1] = scale 1 to 100, glucose rated 100, cited from earlier work
healthy people = assay: Glycemic Index (GI) test, two-hour blood glucose response vs glucose reference; type: in vivo, humans; conditions: when added to sugar; conclusion of Example 11
Protocol: This study was conducted by the Human Nutrition Unit at the University of Sydney using internationally recognised GI methodology, which has been validated by results obtained from small experimental studies and large multi-centre research trials. The experimental procedures used in this study were in accordance with international standards for conducting ethical research with humans and were approved by the Human Research Ethics Committee of Sydney University.
Using standard methodology to determine a food's GI value, a portion of the food containing between 10 and 50 grams of available carbohydrate is fed to 10 healthy people the morning after they have fasted for 10-12 hours overnight. A fasting blood sample is first obtained from each person and then the food is consumed, after which additional blood samples are obtained at regular intervals during the next two hours. In this way, it's possible to measure the total increase in blood sugar produced by that food over a two-hour period. […]
For each subject, the concentration of glucose in each of the eight whole blood samples collected from them during each test session was analysed in duplicate using a HemoCue® B-glucose photometric analyser employing a glucose dehydrogenase/mutarotase enzymatic assay (HemoCue AB, Ängelholm, Sweden). […] Therefore, each blood sample was analysed immediately after it was collected. […]

## OC[C@H]1O[C@@](CO)(O[C@H]2O[C@H](CO)[C@@H](O)[C@H](O)[C@H]2O)[C@@H](O)[C@@H]1O [sucrose]
[1]
  glycemic index (GI): about 65
[1]; listed as table sugar
  glycemic index (GI): 65

## O=C[C@H](O)[C@@H](O)[C@@H](O)[C@H](O)CO [galactose]
Healthy people
  effect on the GI of sugar: reduces the GI to a low level

## O=C(CO)[C@@H](O)[C@H](O)[C@H](O)CO [fructose]
[1]
  glycemic index (GI): 23
